Test results taken from PubChem BioAssay (NCI).
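Step 1: Grow cells in 96-well plates. Step 2: Expose to compound for 48 hours at 5 concentrations. Step 3: Interpolate endpoints linearly; if unreached, use highest concentration. Here, GI50 denotes the concentration required for 50% inhibition of growth. TGI: total growth inhibition.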

Experiments:
Assay in all cases: growth of human tumour cells (NCI), 48 h
MDA-MB-435 = test system: MDA-MB-435
EKVX NSCLC = test system: EKVX NSCLC
RPMI-8226 leukemia = test system: RPMI-8226 leukemia
COLO 205 colon = test system: COLO 205 colon
HCT-15 colon = test system: HCT-15 colon
SK-MEL-28 melanoma = test system: SK-MEL-28 melanoma
HOP-62 NSCLC = test system: HOP-62 NSCLC
TK-10 renal = test system: TK-10 renal
SK-MEL-5 melanoma = test system: SK-MEL-5 melanoma
A549 NSCLC = test system: A549 NSCLC
KM12 colon = test system: KM12 colon
SW-620 colon = test system: SW-620 colon
HL-60(TB) leukemia = test system: HL-60(TB) leukemia
SK-MEL-2 melanoma = test system: SK-MEL-2 melanoma
SNB-19 CNS = test system: SNB-19 CNS
HOP-92 NSCLC = test system: HOP-92 NSCLC
MCF7 breast = test system: MCF7 breast
NCI-H23 lung = test system: NCI-H23 lung
HCC-2998 colon = test system: HCC-2998 colon
NCI-H226 lung = test system: NCI-H226 lung
NCI/ADR-RES ovarian = test system: NCI/ADR-RES ovarian
UACC-257 melanoma = test system: UACC-257 melanoma
BT-549 breast = test system: BT-549 breast
U251 CNS = test system: U251 CNS
OVCAR-5 ovarian = test system: OVCAR-5 ovarian
786-0 renal = test system: 786-0 renal
RXF 393 renal = test system: RXF 393 renal
T-47D breast = test system: T-47D breast
SN12C renal = test system: SN12C renal
SNB-75 CNS = test system: SNB-75 CNS
SF-268 CNS = test system: SF-268 CNS
SK-OV-3 ovarian = test system: SK-OV-3 ovarian
OVCAR-4 ovarian = test system: OVCAR-4 ovarian
MALME-3M melanoma = test system: MALME-3M melanoma
HCT-116 colon = test system: HCT-116 colon
MOLT-4 leukemia = test system: MOLT-4 leukemia
DU-145 prostate = test system: DU-145 prostate
NCI-H522 lung = test system: NCI-H522 lung
MDA-MB-231 breast = test system: MDA-MB-231 breast
K-562 leukemia = test system: K-562 leukemia
ACHN renal = test system: ACHN renal
HT29 colon = test system: HT29 colon
UO-31 renal = test system: UO-31 renal
SF-295 CNS = test system: SF-295 CNS
OVCAR-3 ovarian = test system: OVCAR-3 ovarian
OVCAR-8 ovarian = test system: OVCAR-8 ovarian
NCI-H460 lung = test system: NCI-H460 lung
HS 578T breast = test system: HS 578T breast
SF-539 CNS = test system: SF-539 CNS
PC-3 prostate = test system: PC-3 prostate
LOX IMVI melanoma = test system: LOX IMVI melanoma
UACC-62 melanoma = test system: UACC-62 melanoma
CAKI-1 renal = test system: CAKI-1 renal
IGROV1 ovarian = test system: IGROV1 ovarian
A498 renal = test system: A498 renal

Nc1c(C(=O)N/N=C/c2ccco2)cnn1-c1ccnc2c(C(F)(F)F)cccc12
GI50 (MDA-MB-435): 26.2 µM | TGI (MDA-MB-435): 75.3 µM | GI50 (EKVX NSCLC): 82.2 µM | TGI (EKVX NSCLC): > 100 µM | GI50 (RPMI-8226 leukemia): 19.9 µM | TGI (RPMI-8226 leukemia): 54.2 µM | GI50 (COLO 205 colon): 24.9 µM | TGI (COLO 205 colon): 53.8 µM | GI50 (HCT-15 colon): 18.5 µM | TGI (HCT-15 colon): 33.1 µM | GI50 (SK-MEL-28 melanoma): 19.1 µM | TGI (SK-MEL-28 melanoma): 36.8 µM | GI50 (HOP-62 NSCLC): 36.5 µM | TGI (HOP-62 NSCLC): > 100 µM | GI50 (TK-10 renal): 55.9 µM | TGI (TK-10 renal): > 100 µM | GI50 (SK-MEL-5 melanoma): 30 µM | TGI (SK-MEL-5 melanoma): > 100 µM | GI50 (A549 NSCLC): > 100 µM | TGI (A549 NSCLC): > 100 µM | GI50 (KM12 colon): 31.9 µM | TGI (KM12 colon): 75 µM | GI50 (SW-620 colon): 19.9 µM | TGI (SW-620 colon): 37.3 µM | GI50 (HL-60(TB) leukemia): 25.8 µM | TGI (HL-60(TB) leukemia): 49.5 µM | GI50 (SK-MEL-2 melanoma): 57.4 µM | TGI (SK-MEL-2 melanoma): > 100 µM | GI50 (SNB-19 CNS): 40.3 µM | TGI (SNB-19 CNS): > 100 µM | GI50 (HOP-92 NSCLC): 25.9 µM | TGI (HOP-92 NSCLC): 80.8 µM | GI50 (MCF7 breast): 28 µM | TGI (MCF7 breast): 65.4 µM | GI50 (NCI-H23 lung): 35 µM | TGI (NCI-H23 lung): > 100 µM | GI50 (HCC-2998 colon): 22.8 µM | TGI (HCC-2998 colon): 48.5 µM | GI50 (NCI-H226 lung): 88.8 µM | TGI (NCI-H226 lung): > 100 µM | GI50 (NCI/ADR-RES ovarian): 20.6 µM | TGI (NCI/ADR-RES ovarian): 41.5 µM | GI50 (UACC-257 melanoma): 95.3 µM | TGI (UACC-257 melanoma): > 100 µM | GI50 (BT-549 breast): 18.2 µM | TGI (BT-549 breast): 40.7 µM | GI50 (U251 CNS): 20.5 µM | TGI (U251 CNS): 40.5 µM | GI50 (OVCAR-5 ovarian): 23.3 µM | TGI (OVCAR-5 ovarian): 61.6 µM | GI50 (786-0 renal): 43.6 µM | TGI (786-0 renal): > 100 µM | GI50 (RXF 393 renal): 22.7 µM | TGI (RXF 393 renal): 43.7 µM | GI50 (T-47D breast): 39.5 µM | TGI (T-47D breast): > 100 µM | GI50 (SN12C renal): 20.2 µM | TGI (SN12C renal): 55 µM | GI50 (SNB-75 CNS): 28.1 µM | TGI (SNB-75 CNS): 97.7 µM | GI50 (SF-268 CNS): 31.6 µM | TGI (SF-268 CNS): 91.6 µM | GI50 (SK-OV-3 ovarian): 86.4 µM | TGI (SK-OV-3 ovarian): > 100 µM | GI50 (OVCAR-4 ovarian): 33.5 µM | TGI (OVCAR-4 ovarian): > 100 µM | GI50 (MALME-3M melanoma): 73.3 µM | TGI (MALME-3M melanoma): > 100 µM | GI50 (HCT-116 colon): 18.2 µM | TGI (HCT-116 colon): 32.2 µM | GI50 (MOLT-4 leukemia): 23.9 µM | TGI (MOLT-4 leukemia): 63.5 µM | GI50 (DU-145 prostate): 18.3 µM | TGI (DU-145 prostate): 36.5 µM | GI50 (NCI-H522 lung): 29.5 µM | TGI (NCI-H522 lung): > 100 µM | GI50 (MDA-MB-231 breast): 17.3 µM | TGI (MDA-MB-231 breast): 38.9 µM | GI50 (K-562 leukemia): 24.2 µM | TGI (K-562 leukemia): 49.1 µM | GI50 (ACHN renal): 38.6 µM | TGI (ACHN renal): > 100 µM | GI50 (HT29 colon): 19.8 µM | TGI (HT29 colon): 38.8 µM | GI50 (UO-31 renal): 16.9 µM | TGI (UO-31 renal): 33.7 µM | GI50 (SF-295 CNS): 38.7 µM | TGI (SF-295 CNS): > 100 µM | GI50 (OVCAR-3 ovarian): 17.8 µM | TGI (OVCAR-3 ovarian): 39 µM | GI50 (OVCAR-8 ovarian): 24.2 µM | TGI (OVCAR-8 ovarian): 57.1 µM | GI50 (NCI-H460 lung): 48.1 µM | TGI (NCI-H460 lung): > 100 µM | GI50 (HS 578T breast): 35.4 µM | TGI (HS 578T breast): 89.1 µM | GI50 (SF-539 CNS): 19.4 µM | TGI (SF-539 CNS): 41.2 µM | GI50 (PC-3 prostate): 19.3 µM | TGI (PC-3 prostate): 49.1 µM | GI50 (LOX IMVI melanoma): 17.4 µM | TGI (LOX IMVI melanoma): 31.2 µM | GI50 (UACC-62 melanoma): 35.9 µM | TGI (UACC-62 melanoma): > 100 µM | GI50 (CAKI-1 renal): 37.5 µM | TGI (CAKI-1 renal): > 100 µM | GI50 (IGROV1 ovarian): 25.4 µM | TGI (IGROV1 ovarian): 80.1 µM

O=c1cc(-c2ccccc2)[nH]c2ccc(N3CCCC3)cc12
TGI (MDA-MB-435): < 0.0114 µM | TGI (EKVX NSCLC): > 100 µM | TGI (RPMI-8226 leukemia): > 100 µM | TGI (HCT-15 colon): > 100 µM | TGI (SK-MEL-28 melanoma): > 100 µM | TGI (HOP-62 NSCLC): > 74.2 µM | TGI (TK-10 renal): > 100 µM | TGI (SK-MEL-5 melanoma): 2.16 µM | TGI (KM12 colon): 0.198 µM | TGI (SW-620 colon): > 100 µM | TGI (HL-60(TB) leukemia): < 0.0347 µM | TGI (SK-MEL-2 melanoma): > 100 µM | TGI (SNB-19 CNS): > 100 µM | TGI (HOP-92 NSCLC): > 100 µM | TGI (MCF7 breast): > 100 µM | TGI (NCI-H226 lung): 0.0761 µM | TGI (NCI/ADR-RES ovarian): > 100 µM | TGI (UACC-257 melanoma): > 100 µM | TGI (BT-549 breast): > 100 µM | TGI (U251 CNS): > 46.9 µM | TGI (OVCAR-5 ovarian): > 100 µM | TGI (786-0 renal): > 52.4 µM | TGI (RXF 393 renal): > 100 µM | TGI (T-47D breast): > 100 µM | TGI (SN12C renal): > 100 µM | TGI (SNB-75 CNS): > 100 µM | TGI (SF-268 CNS): > 100 µM | TGI (SK-OV-3 ovarian): > 100 µM | TGI (MALME-3M melanoma): > 100 µM | TGI (HCT-116 colon): > 34.8 µM | TGI (MOLT-4 leukemia): > 100 µM | TGI (DU-145 prostate): > 100 µM | TGI (MDA-MB-231 breast): > 100 µM | TGI (K-562 leukemia): > 100 µM | TGI (ACHN renal): > 100 µM | TGI (UO-31 renal): > 100 µM | TGI (SF-295 CNS): 0.0201 µM | TGI (OVCAR-3 ovarian): 26.1 µM | TGI (OVCAR-8 ovarian): > 57.9 µM | TGI (HS 578T breast): > 100 µM | TGI (SF-539 CNS): 0.0703 µM | TGI (A498 renal): > 100 µM | TGI (PC-3 prostate): > 100 µM | TGI (LOX IMVI melanoma): > 100 µM | TGI (UACC-62 melanoma): 85.2 µM | TGI (CAKI-1 renal): > 100 µM | TGI (IGROV1 ovarian): > 100 µM
